From patent US20260232666A1, “COMPOSITIONS AND METHODS FOR INHIBITION OF RAS” (TheRas, Inc., priority 2023, published 2026)

Key:
[1] = biological target: T1, GppNHp-loaded KRAS4b (amino acids 1-169) G12C/C118S protein (Homo sapiens, UniProt P01116, C118S/G12C); assay: Covalent cysteine 12 modification by MALDI-TOF MS, GppNHp-loaded KRAS G12C; assay type: binding; conditions: 15 minutes reaction time point
T1 construct: KRAS4b (amino acids 1-169) G12C/C118S protein; made in house
Summary of the method: (§1)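 Protein (1 μM) was incubated with compound at a 1:2.5 protein:compound ratio in 20 mM HEPES, 150 mM NaCl, 1 mM MgCl2, pH 7.3, at room temperature in the dark. After 15 min, samples were mixed into sinapinic acid matrix and analysed by linear-mode MALDI-TOF. Modification is adduct peak height over summed unmodified plus adduct heights.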

[2] = biological target: T2, GTP-loaded KRAS4b (amino acids 1-169) G12C/C118S protein (Homo sapiens, UniProt P01116, C118S/G12C); assay: Covalent cysteine 12 modification by MALDI-TOF MS, GTP-loaded KRAS G12C; assay type: binding; conditions: 15 minutes reaction time point
T2 construct: KRAS4b (amino acids 1-169) G12C/C118S protein; made in house
Summary of the method: as §1

[3] = biological target: T3, GDP-loaded KRAS4b (amino acids 1-169) G12C/C118S protein (Homo sapiens, UniProt P01116, C118S/G12C); assay: Covalent cysteine 12 modification by MALDI-TOF MS, GDP-loaded KRAS G12C; assay type: binding; conditions: 15 minutes reaction time point
T3 construct: KRAS4b (amino acids 1-169) G12C/C118S protein; made in house
Summary of the method: as §1

pERK in NCI-H358 cells = assay: Cell-based pERK HTRF assay (pERK inhibition in H358 cells); conditions: Homo sapiens, NCI-H358, 0.5 h, 30 min incubation
Summary of the method: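 NCI-H358 cells were seeded at 4×10^4 cells/well in RPMI/10% FBS, then treated next day for 30 min at 0.25% DMSO (9-point, 3-fold series from 75 μM). Lysates were read by HTRF (d2/Eu cryptate antibody pair, 615 nm emission) after 4–24 h at room temperature to give pERK IC50.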

SMILES	GppNHp-KRAS G12C percent of modification [1]	GTP-KRAS G12C percent of modification [2]	GDP-KRAS G12C percent of modification [3]	IC50 (pERK in NCI-H358 cells) [nM]
C=CC(=O)N1CC[C@@H](N(C)c2nc(OC[C@@]34CCCN3C[C@H](F)C4)nc3c(F)c(-c4ccc(F)c5sc(N)c(C#N)c45)c(C(F)(F)F)cc23)[C@H]1CC [Compound 18]	B (50≤percent of modification <70%)	C (10%≤percent of modification <50%)	B (50≤percent of modification <70%)	< 100
C=CC(=O)N1CC[C@@H](N(C)c2nc(OC[C@@]34CCCN3C[C@H](F)C4)nc3c(F)c(-c4ccc(F)c5sc(N)c(C#N)c45)c(Cl)cc23)[C@H]1CC [Compound 19]	C (10%≤percent of modification <50%)	C (10%≤percent of modification <50%)	C (10%≤percent of modification <50%)	< 100
C=CC(=O)N1CC[C@@H](N(CC)c2nc(OC[C@@]34CCCN3C[C@H](F)C4)nc3c(F)c(-c4ccc(F)c5sc(N)c(C#N)c45)c(Cl)cc23)[C@H]1CC [Compound 20]	C (10%≤percent of modification <50%)	C (10%≤percent of modification <50%)	C (10%≤percent of modification <50%)	< 100
C=CC(=O)N1CC[C@@H](N(C)c2nc(OC[C@@]34CCCN3C[C@H](F)C4)nc3cc(-c4ccc(F)c5sc(N)c(C#N)c45)c(F)cc23)[C@@H]1CC [Compound 22]	D (percent of modification <10%)	D (percent of modification <10%)	A (percent of modification ≥70%)	< 100
C=CC(=O)N1CC[C@@H](N(C)c2nc(OC[C@@]34CCCN3C[C@H](F)C4)nc3c(F)c(-c4ccc(F)c5sc(N)c(C#N)c45)ccc23)[C@@H]1CC [Compound 23]	C (10%≤percent of modification <50%)	C (10%≤percent of modification <50%)	A (percent of modification ≥70%)	< 100
C=CC(=O)N1CC[C@@H](N(C)c2nc(OC[C@@]34CCCN3C[C@H](F)C4)nc3cc(-c4ccc(F)c5sc(N)c(C#N)c45)c(C#N)cc23)[C@@H]1CC [Compound 24]	C (10%≤percent of modification <50%)	D (percent of modification <10%)	A (percent of modification ≥70%)	< 100
C=CC(=O)N1CC[C@@H](N(CC)c2nc(OC[C@@]34CCCN3C[C@H](F)C4)nc3cc(-c4ccc(F)c5sc(N)c(C#N)c45)c(C#N)cc23)[C@H]1C [Compound 25]	A (percent of modification ≥70%)	A (percent of modification ≥70%)	A (percent of modification ≥70%)	< 100
C=CC(=O)N1CC[C@@H](N(C)c2nc(OC[C@@]34CCCN3C[C@H](F)C4)nc3cc(-c4ccc(F)c5sc(N)c(C#N)c45)c(C#N)cc23)[C@@H]1C [Compound 27]	A (percent of modification ≥70%)	B (50≤percent of modification <70%)	A (percent of modification ≥70%)	< 100
C=CC(=O)N1CC[C@@H](N(C)c2nc(OC[C@@]34CCCN3C[C@H](F)C4)nc3cc(-c4ccc(F)c5sc(N)c(C#N)c45)c(F)cc23)[C@H]1CC [Compound 29]	A (percent of modification ≥70%)	A (percent of modification ≥70%)	A (percent of modification ≥70%)	< 100
C=CC(=O)N1CC[C@@H](N(C)c2nc(OC[C@@]34CCCN3C[C@H](F)C4)nc3cc(-c4ccc(F)c5sc(N)c(C#N)c45)c(F)cc23)[C@@H]1C [Compound 31]	A (percent of modification ≥70%)	C (10%≤percent of modification <50%)	A (percent of modification ≥70%)	< 100
C=CC(=O)N1CC[C@@H](N(C)c2nc(OC[C@@H]3C[C@@H](OC)CN3C)nc3c(F)c(-c4ccc(F)c5sc(N)c(C#N)c45)c(C(F)(F)F)cc23)[C@@H]1C [Compound 33]	A (percent of modification ≥70%)	B (50≤percent of modification <70%)	B (50≤percent of modification <70%)	< 100
C=CC(=O)N1C2CCC1CN(c1nc(OC[C@@]34CCCN3C[C@H](F)C4)nc3c(F)c(-c4ccc(F)c5sc(N)c(C#N)c45)c(C(F)(F)F)cc13)C2 [Compound 34]	C (10%≤percent of modification <50%)	D (percent of modification <10%)	B (50≤percent of modification <70%)	< 100
C=CC(=O)N1C2CC1CN(c1nc(OC[C@@]34CCCN3C[C@H](F)C4)nc3c(F)c(-c4ccc(F)c5sc(N)c(C#N)c45)c(C(F)(F)F)cc13)C2 [Compound 35]	C (10%≤percent of modification <50%)	C (10%≤percent of modification <50%)	A (percent of modification ≥70%)	< 100
C=CC(=O)N1C[C@H]2CC[C@@H]1CN2c1nc(OC[C@@]23CCCN2C[C@H](F)C3)nc2c(F)c(-c3ccc(F)c4sc(N)c(C#N)c34)c(C(F)(F)F)cc12 [Compound 36]	D (percent of modification <10%)	D (percent of modification <10%)	D (percent of modification <10%)	100 to 1000
C=CC(=O)N1CC[C@@H](N(C)c2nc(OC[C@@H]3C[C@@H](OC)CN3CC)nc3c(F)c(-c4ccc(F)c5sc(N)c(C#N)c45)c(C(F)(F)F)cc23)[C@@H]1C [Compound 101]	A (percent of modification ≥70%)	B (50≤percent of modification <70%)	A (percent of modification ≥70%)	< 100
C=CC(=O)N1CC[C@@H](N(C)c2nc(OC[C@@H]3C[C@@H](OC)CN3CC)nc3c(F)c(-c4ccc(F)c5sc(N)c(C#N)c45)c(C(F)(F)F)cc23)[C@H]1C [Compound 104]	A (percent of modification ≥70%)	A (percent of modification ≥70%)	A (percent of modification ≥70%)	< 100
C=CC(=O)N1CC[C@@H](N(C)c2nc(OC[C@@H]3C[C@@H](F)CN3CC)nc3c(F)c(-c4ccc(F)c5sc(N)c(C#N)c45)c(Cl)cc23)[C@@H]1C [Compound 105]	A (percent of modification ≥70%)	C (10%≤percent of modification <50%)	B (50≤percent of modification <70%)	< 100
C=CC(=O)N1CCN(c2nc(OC[C@@]34CCCN3C[C@H](F)C4)nc3c(F)c(-c4ccc(F)c5sc(N)c(C#N)c45)c(C(F)(F)F)cc23)C2CC21 (some centres unmarked) [Compound 106]	A (percent of modification ≥70%)	C (10%≤percent of modification <50%)	A (percent of modification ≥70%)	< 100
C=CC(=O)N1CC[C@@H](N(C)c2nc(OC[C@@H]3C[C@@H](F)CN3CC)nc3c(F)c(-c4ccc(F)c5sc(N)c(C#N)c45)c(C(F)(F)F)cc23)[C@H]1C [Compound 107]	A (percent of modification ≥70%)	A (percent of modification ≥70%)	A (percent of modification ≥70%)	< 100
C=CC(=O)N1C[C@H](N(C)c2nc(OC[C@@]34CCCN3C[C@H](F)C4)nc3c(F)c(-c4ccc(F)c5sc(N)c(C#N)c45)c(C(F)(F)F)cc23)C[C@@H]1C [Compound 108]	A (percent of modification ≥70%)	B (50≤percent of modification <70%)	B (50≤percent of modification <70%)	< 100
